ChEMBL document CHEMBL3227948, “Preparation and antidiabetic activity of some sulfonylurea derivatives of 3,5-disubstituted pyrazoles” (1979)

test system: Mus musculus; assay: Hypoglycemic activity in alloxan-induced diabetic albino mouse assessed as decrease in blood glucose level at 1 mmol/kg, po administered 6 days after alloxan injection measured after 2 to 4 hrs by automated glucose oxidase method relative to control; format: functional

First: Cc1cc(C(=O)O)nn1-c1ccc(S(=O)(=O)N2CC(=O)N(C3CCCCC3)C2=S)cc1
Second: Cc1cc(C)n(-c2ccc(S(=O)(=O)N3CC(=O)N(C4CCCCC4)C3=S)cc2)n1
The inhibition in vivo at 1000 µmol/kg of the first is lower: 1% for the first, 2% for the second.

First: CCCN1C(=O)CN(S(=O)(=O)c2ccc(-n3nc(C)cc3C)cc2)C1=S
Second: CCCCN1C(=O)CN(S(=O)(=O)c2ccc(-n3nc(C)cc3C)cc2)C1=S
The inhibition in vivo at 1000 µmol/kg of the first is lower: less than 1% for the first, 1% for the second.

Compared with N=C(N)NC(=N)NCCc1ccccc1 [PHENFORMIN], Cc1cc(C(=O)O)nn1-c1ccc(S(=O)(=O)N2CC(=O)N(Cc3ccccc3)C2=S)cc1 is lower in inhibition in vivo at 1000 µmol/kg: 21% for the first, less than 1% for the second.

Going from CCN1C(=O)CN(S(=O)(=O)c2ccc(-n3nc(C)cc3C)cc2)C1=S to C=CCN1C(=O)CN(S(=O)(=O)c2ccc(-n3nc(C)cc3C)cc2)C1=S, the inhibition in vivo at 1000 µmol/kg rises from less than 1% to 4%.

C=CCN1C(=O)CN(S(=O)(=O)c2ccc(-n3nc(C(=O)O)cc3C)cc2)C1=S and CCN1C(=O)CN(S(=O)(=O)c2ccc(-n3nc(C(=O)O)cc3C)cc2)C1=S cannot be ordered by inhibition in vivo at 1000 µmol/kg: less than 1% for the first, less than 1% for the second.

CCCCN1C(=O)CN(S(=O)(=O)c2ccc(-n3nc(C(=O)O)cc3C)cc2)C1=S and CCCN1C(=O)CN(S(=O)(=O)c2ccc(-n3nc(C(=O)O)cc3C)cc2)C1=S are the same in inhibition in vivo at 1000 µmol/kg: 1% for the first, 1% for the second.

First: Cc1cc(C)n(-c2ccc(S(=O)(=O)N3CC(=O)N(Cc4ccccc4)C3=S)cc2)n1
Second: Cc1cc(C)n(-c2ccc(S(=O)(=O)N3CC(=O)N(c4ccccc4)C3=S)cc2)n1
The inhibition in vivo at 1000 µmol/kg of the first is lower: 1% for the first, 8% for the second.

test system: Mus musculus; assay: Hypoglycemic activity in alloxan-induced diabetic albino mouse assessed as decrease in blood glucose level at 0.4 mmol/kg, po administered 6 days after alloxan injection measured after 2 to 4 hrs by automated glucose oxidase method relative to control; format: functional

Going from CCCCNC(=O)NS(=O)(=O)c1ccc(-n2nc(C(=O)O)cc2C)cc1 to CCCNC(=O)NS(=O)(=O)c1ccc(-n2nc(C(=O)O)cc2C)cc1, the inhibition in vivo at 400 µmol/kg falls from 2% to 1%.

CCCCNC(=S)NS(=O)(=O)c1ccc(-n2nc(C(=O)O)cc2C)cc1 and CCCNC(=S)NS(=O)(=O)c1ccc(-n2nc(C(=O)O)cc2C)cc1 cannot be ordered by inhibition in vivo at 400 µmol/kg: less than 1% for the first, less than 1% for the second.

Compared with C=CCNC(=S)NS(=O)(=O)c1ccc(-n2nc(C(=O)O)cc2C)cc1, CCNC(=S)NS(=O)(=O)c1ccc(-n2nc(C(=O)O)cc2C)cc1 is higher in inhibition in vivo at 400 µmol/kg: -6% for the first, -2% for the second.

Cc1cc(C)n(-c2ccc(S(=O)(=O)NC(=S)NCc3ccccc3)cc2)n1 and Cc1cc(C)n(-c2ccc(S(=O)(=O)NC(=O)NCc3ccccc3)cc2)n1 cannot be ordered by inhibition in vivo at 400 µmol/kg: 0% for the first, less than 1% for the second.

Compared with CCCNC(=S)NS(=O)(=O)c1ccc(-n2nc(C)cc2C)cc1, CCCCNC(=S)NS(=O)(=O)c1ccc(-n2nc(C)cc2C)cc1 is higher in inhibition in vivo at 400 µmol/kg: less than 1% for the first, 1% for the second.

Compared with Cc1cc(C)n(-c2ccc(S(=O)(=O)NC(=S)Nc3ccccc3)cc2)n1, Cc1cc(C(=O)O)nn1-c1ccc(S(=O)(=O)NC(=S)Nc2ccccc2)cc1 is higher in inhibition in vivo at 400 µmol/kg: -3% for the first, 0% for the second.

CCNC(=O)NS(=O)(=O)c1ccc(-n2nc(C)cc2C)cc1 and CCCNC(=O)NS(=O)(=O)c1ccc(-n2nc(C)cc2C)cc1 cannot be ordered by inhibition in vivo at 400 µmol/kg: less than 1% for the first, less than 1% for the second.

Cc1cc(C(=O)O)nn1-c1ccc(S(=O)(=O)NC(=O)NCc2ccccc2)cc1 and Cc1cc(C(=O)O)nn1-c1ccc(S(=O)(=O)NC(=S)NCc2ccccc2)cc1 cannot be ordered by inhibition in vivo at 400 µmol/kg: 0% for the first, less than 2% for the second.

Going from CCNC(=O)NS(=O)(=O)c1ccc(-n2nc(C(=O)O)cc2C)cc1 to Cc1cc(C(=O)O)nn1-c1ccc(S(=O)(=O)NC(=O)NC2CCCCC2)cc1, the inhibition in vivo at 400 µmol/kg rises from 0% to 1%.

Going from Cc1cc(C)n(-c2ccc(S(=O)(=O)NC(=S)NC3CCCCC3)cc2)n1 to Cc1cc(C)n(-c2ccc(S(=O)(=O)NC(=O)NC3CCCCC3)cc2)n1, the inhibition in vivo at 400 µmol/kg rises from less than 2% to 10%.

Compared with Cc1cc(C(=O)O)nn1-c1ccc(S(=O)(=O)NC(=S)NC2CCCCC2)cc1, C=CCNC(=S)NS(=O)(=O)c1ccc(-n2nc(C)cc2C)cc1 is lower in inhibition in vivo at 400 µmol/kg: 1% for the first, -1% for the second.

Compared with CCCCNC(=O)NS(=O)(=O)c1ccc(-n2nc(C)cc2C)cc1, CCNC(=S)NS(=O)(=O)c1ccc(-n2nc(C)cc2C)cc1 is lower in inhibition in vivo at 400 µmol/kg: 2% for the first, 0% for the second.

For Cc1cc(C)n(-c2ccc(S(=O)(=O)NC(=O)NNC(=N)N)cc2)n1, the inhibition in vivo at 400 µmol/kg was 3%.

test system: Mus musculus; assay: Hypoglycemic activity in alloxan-induced diabetic albino mouse assessed as decrease in blood glucose level at 1 mmol/kg, po administered 6 days after alloxan injection measured after 1 to 3 hrs by automated glucose oxidase method relative to control; format: functional

Compared with C=CCN1C(=O)CCN(S(=O)(=O)c2ccc(-n3nc(C(=O)O)cc3C)cc2)C1=S, CCN1C(=O)CCN(S(=O)(=O)c2ccc(-n3nc(C(=O)O)cc3C)cc2)C1=S is higher in inhibition in vivo at 1000 µmol/kg: 0% for the first, 1% for the second.

First: Cc1cc(C(=O)O)nn1-c1ccc(S(=O)(=O)N2CCC(=O)N(C3CCCCC3)C2=S)cc1
Second: Cc1cc(C)n(-c2ccc(S(=O)(=O)N3CCC(=O)N(C4CCCCC4)C3=S)cc2)n1
The inhibition in vivo at 1000 µmol/kg of the first is lower: 2% for the first, 4% for the second.

Compared with CCCN1C(=O)CCN(S(=O)(=O)c2ccc(-n3nc(C(=O)O)cc3C)cc2)C1=S, CCCCN1C(=O)CCN(S(=O)(=O)c2ccc(-n3nc(C(=O)O)cc3C)cc2)C1=S is higher in inhibition in vivo at 1000 µmol/kg: less than 1% for the first, 2% for the second.

Going from Cc1cc(C(=O)O)nn1-c1ccc(S(=O)(=O)N2CCC(=O)N(Cc3ccccc3)C2=S)cc1 to Cc1cc(C)n(-c2ccc(S(=O)(=O)N3CCC(=O)N(Cc4ccccc4)C3=S)cc2)n1, the inhibition in vivo at 1000 µmol/kg rises from 16% to 18%.

Compared with N=C(N)NC(=N)NCCc1ccccc1 [PHENFORMIN], Cc1cc(C(=O)O)nn1-c1ccc(S(=O)(=O)N2CCC(=O)N(c3ccccc3)C2=S)cc1 is lower in inhibition in vivo at 1000 µmol/kg: 21% for the first, 1% for the second.

First: CCN1C(=O)CCN(S(=O)(=O)c2ccc(-n3nc(C)cc3C)cc2)C1=S
Second: CCCN1C(=O)CCN(S(=O)(=O)c2ccc(-n3nc(C)cc3C)cc2)C1=S
The inhibition in vivo at 1000 µmol/kg of the first is higher: 4% for the first, 1% for the second.

Going from CCCCN1C(=O)CCN(S(=O)(=O)c2ccc(-n3nc(C)cc3C)cc2)C1=S to Cc1cc(C)n(-c2ccc(S(=O)(=O)N3CCC(=O)N(c4ccccc4)C3=S)cc2)n1, the inhibition in vivo at 1000 µmol/kg falls from 1% to less than 1%.
